Measurements from patent US9108957B2 (MITSUBISHI TANABE PHARMA CORPORATION, priority 2009, dated 2015).
Counter-ions that a name gives are not always drawn.

Biological target: human recombinant TPK1 (Homo sapiens, UniProt P49841)
Test: Inhibitory activity against P-GS1 phosphorylation by TPK1 (Kinase Glo luminescence)
Assay type: biochemical
Conditions: 7.5 μM P-GS1, 10 μM ATP, 25° C. for 16 hours, Kinase Glo Reagent luminescent signal
Method: Inhibitory Activity of the Medicament of the Present Invention Against P-GS1 Phosphorylation by Bovine Cerebral TPK1
A mixture containing 100 mM HEPES-sodium hydroxide (pH 7.2), 1 mM magnesium acetate, 1 mM EGTA, 1 mM dithiothreitol (DTT), 0.02% Tween 20, 7.5 μM P-GS1, 10 μM ATP, human recombinant TPK1 and a compound shown in Table (a final mixture contained 1% DMSO deriving from a solution of a test compound prepared in the presence of 10% DMSO) was used as a reaction system. The phosphorylation was started by adding ATP, and the reaction was conducted at 25° C. for 16 hours. Then equal volume of Kinase Glo Reagent (Promega) was added to the mixture and luminescent signal from the mixture was measured. IC50 for each compound was calculated by setting the data of mixture without enzyme as 0% activity and that without compound as 100% activity.

Sequence of human recombinant TPK1 (P49841 whole entry): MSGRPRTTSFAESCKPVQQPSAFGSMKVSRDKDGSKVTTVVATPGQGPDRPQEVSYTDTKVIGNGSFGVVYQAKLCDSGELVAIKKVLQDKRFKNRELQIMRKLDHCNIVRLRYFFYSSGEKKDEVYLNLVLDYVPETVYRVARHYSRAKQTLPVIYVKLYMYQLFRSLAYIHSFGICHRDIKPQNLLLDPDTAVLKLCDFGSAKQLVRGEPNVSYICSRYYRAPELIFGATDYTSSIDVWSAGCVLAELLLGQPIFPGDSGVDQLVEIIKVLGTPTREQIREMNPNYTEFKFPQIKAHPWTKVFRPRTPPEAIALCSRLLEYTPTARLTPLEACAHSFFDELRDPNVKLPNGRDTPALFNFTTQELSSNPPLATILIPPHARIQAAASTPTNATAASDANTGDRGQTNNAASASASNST

IC50	SMILES
5.5 nM	Cn1c(N2CCCO[C@@H](c3ccc(Br)cc3)C2)nc(-c2ccncc2F)cc1=O [Compound A010, (S)-2-[2-(4-bromophenyl)-1,4-oxazepan-4-yl]-6-(3-fluoropyridin-4-yl)-3-methylpyrimidin-4(3H)-one]
6 nM	Cn1c(N2CCCO[C@@H](c3ccc(F)cc3)C2)nc(-c2ccncc2F)cc1=O [Compound A011, (S)-2-[2-(4-fluorophenyl)-1,4-oxazepan-4-yl]-6-(3-fluoropyridin-4-yl)-3-methylpyrimidin-4(3H)-one]
6.7 nM	Cn1c(N2CCCO[C@@H](c3cccc(C(N)=O)c3)C2)nc(-c2ccncc2F)cc1=O [Compound A012]
7.3 nM	Cn1c(N2CCCO[C@@H](c3ccc(C#N)cc3)C2)nc(-c2ccncc2F)cc1=O [Compound A013, (S)-2-[2-(4-cyanophenyl)-1,4-oxazepan-4-yl]-6-(3-fluoropyridin-4-yl)-3-methylpyrimidin-4(3H)-one]
8.15 nM	Cn1c(N2CCOC(c3ccccc3F)CC2)nc(-c2ccncc2F)cc1=O (stereo not shown) [Compound A014, 2-[7-(2-fluorophenyl)-1,4-oxazepan-4-yl]-6-(3-fluoropyridin-4-yl)-3-methylpyrimidin-4(3H)-one]
9.3 nM	Cn1c(N2CCCO[C@@H](c3cccc(C(N)=O)c3)C2)nc(-c2ccncn2)cc1=O [Compound A015, (S)-2-[2-(3-aminocarbonylphenyl)-1,4-oxazepan-4-yl]-3-methyl-6-(pyrimidin-4-yl)pyrimidin-4(3H)-one]
10.3 nM	Cc1nc(-c2cccc([C@H]3CN(c4nc(-c5ccncc5F)cc(=O)n4C)CCCO3)c2)no1 [Compound A016, (S)-2-[2-[3-(5-methyl-1,2,4-oxadiazol-3-yl)-phenyl]-1,4-oxazepan-4-yl]-6-(3-fluoropyridin-4-yl)-3-methylpyrimidin-4(3H)-one]
11 nM	Cn1c(N2CCCO[C@@H](c3ccc(C(N)=O)cc3)C2)nc(-c2ccncc2)cc1=O [Compound A017, (S)-2-[2-(4-aminocarbonylphenyl)-1,4-oxazepan-4-yl]-3-methyl-6-(pyridin-4-yl)pyrimidin-4(3H)-one]
11 nM	Cn1c(N2CCCO[C@@H](c3ccc(C(N)=O)cc3)C2)nc(-c2ccncn2)cc1=O [Compound A018]
11.1 nM	Cc1noc(-c2ccc([C@H]3CN(c4nc(-c5ccncc5F)cc(=O)n4C)CCCO3)cc2)n1 [Compound A019, (S)-2-[2-[4-(3-methyl-1,2,4-oxadiazol-5-yl)-phenyl]-1,4-oxazepan-4-yl]-6-(3-fluoropyridin-4-yl)-3-methylpyrimidin-4(3H)-one]
11.4 nM	Cn1c(N2CCCO[C@@H](c3cccc(C#N)c3)C2)nc(-c2ccncc2F)cc1=O [Compound A020]
12 nM	Cn1c(N2CCCO[C@@H](c3ccc(Br)cc3)C2)nc(-c2ccncc2)cc1=O [Compound A021, (S)-2-[2-(4-bromophenyl)-1,4-oxazepan-4-yl]-3-methyl-6-(pyridin-4-yl)pyrimidin-4(3H)-one]
12.5 nM	Cn1c(N2CCCO[C@@H](c3ccc(F)cc3)C2)nc(-c2ccncc2)cc1=O [Compound A022, (S)-2-[2-(4-fluorophenyl)-1,4-oxazepan-4-yl]-3-methyl-6-(pyridin-4-yl)pyrimidin-4(3H)-one]
12.7 nM	Cn1c(N2CCCO[C@H](c3cccc(Br)c3)C2)nc(-c2ccncc2)cc1=O [Compound A023, (R)-2-[2-(3-bromophenyl)-1,4-oxazepan-4-yl]-3-methyl-6-(pyridin-4-yl)pyrimidin-4(3H)-one]
13 nM	Cn1c(N2CCCO[C@@H](c3cccc(Br)c3)C2)nc(-c2ccncc2)cc1=O [Compound A024, (S)-2-[2-(3-bromophenyl)-1,4-oxazepan-4-yl]-3-methyl-6-(pyridin-4-yl)pyrimidin-4(3H)-one]
13.7 nM	Cn1c(N2CCCO[C@H](c3cccc(Br)c3)C2)nc(-c2ccncc2F)cc1=O [Compound A025, (R)-2-[2-(3-bromophenyl)-1,4-oxazepan-4-yl]-6-(3-fluoropyridin-4-yl)-3-methylpyrimidin-4(3H)-one]
14.6 nM	Cn1c(N2CCCOC(c3ccccc3)C2)nc(-c2ccncn2)cc1=O (stereo not shown) [Compound A026, 2-(2-phenyl-1,4-oxazepan-4-yl)-3-methyl-6-(pyrimidin-4-yl)pyrimidin-4(3H)-one]
15.4 nM	Cc1nc(-c2ccc([C@H]3CN(c4nc(-c5ccncc5F)cc(=O)n4C)CCCO3)cc2)no1 [Compound A027, (S)-2-[2-[4-(5-methyl-1,2,4-oxadiazol-3-yl)-phenyl]-1,4-oxazepan-4-yl]-6-(3-fluoropyridin-4-yl)-3-methylpyrimidin-4(3H)-one]
17.6 nM	Cn1c(N2CCCO[C@@H](c3ccc(C#N)cc3)C2)nc(-c2ccncn2)cc1=O [Compound A028, (S)-2-[2-(4-cyanophenyl)-1,4-oxazepan-4-yl]-3-methyl-6-(pyrimidin-4-yl)pyrimidin-4(3H)-one]
18.8 nM	Cn1c(N2CCCO[C@H](c3cccc(C(N)=O)c3)C2)nc(-c2ccncc2F)cc1=O [Compound A029]
19.8 nM	Cc1nc(-c2cccc([C@H]3CN(c4nc(-c5ccncn5)cc(=O)n4C)CCCO3)c2)no1 [Compound A030, (S)-2-[2-[3-(5-methyl-1,2,4-oxadiazol-3-yl)-phenyl]-1,4-oxazepan-4-yl]-3-methyl-6-(pyrimidin-4-yl)pyrimidin-4(3H)-one]
20.2 nM	Cc1noc(-c2ccc([C@H]3CN(c4nc(-c5ccncn5)cc(=O)n4C)CCCO3)cc2)n1 [Compound A031, (S)-2-[2-[4-(3-methyl-1,2,4-oxadiazol-5-yl)-phenyl]-1,4-oxazepan-4-yl]-3-methyl-6-(pyrimidin-4-yl)pyrimidin-4(3H)-one]
21.6 nM	Cc1noc(-c2cccc([C@H]3CN(c4nc(-c5ccncc5F)cc(=O)n4C)CCCO3)c2)n1 [Compound A032, (S)-2-[2-[3-(3-methyl-1,2,4-oxadiazol-5-yl)-phenyl]-1,4-oxazepan-4-yl]-6-(3-fluoropyridin-4-yl)-3-methylpyrimidin-4(3H)-one]
23.4 nM	Cn1c(N2CCCO[C@@H](c3cccc(C(N)=O)c3)C2)nc(-c2ccncc2)cc1=O [Compound A033, (S)-2-[2-(3-aminocarbonylphenyl)-1,4-oxazepan-4-yl]-3-methyl-6-(pyridin-4-yl)pyrimidin-4(3H)-one]
27 nM	Cn1c(N2CCCOC(c3ccc(F)cc3)C2)nc(-c2ccncc2)cc1=O (stereo not shown) [Compound A035, 2-[2-(4-fluorophenyl)-1,4-oxazepan-4-yl]-3-methyl-6-(pyridin-4-yl)pyrimidin-4(3H)-one hydrochloride]
28.7 nM	Cc1noc(-c2ccc([C@H]3CN(c4nc(-c5ccncc5)cc(=O)n4C)CCCO3)cc2)n1 [Compound A036, (S)-2-[2-[4-(3-methyl-1,2,4-oxadiazol-5-yl)-phenyl]-1,4-oxazepan-4-yl]-3-methyl-6-(pyridin-4-yl)pyrimidin-4(3H)-one]
30.8 nM	Cn1c(N2CCCO[C@@H](c3ccc(C#N)cc3)C2)nc(-c2ccncc2)cc1=O [Compound A037, (S)-2-(2-(4-cyanophenyl)-1,4-oxazepan-4-yl)-3-methyl-6-(pyridin-4-yl)pyrimidin-4(3H)-one]
30.9 nM	Cn1c(N2CCCO[C@H](c3ccc(C(N)=O)cc3)C2)nc(-c2ccncc2F)cc1=O [Compound A038, (R)-2-[2-(4-aminocarbonylphenyl)-1,4-oxazepan-4-yl]-6-(3-fluoropyridin-4-yl)-3-methylpyrimidin-4(3H)-one]
